Test results published in the supplement of paper PMC10307832.

How the values were obtained:
Experiment in all cases: relative viability (nuclei count vs DMSO), 5 days (fraction); higher = more cells survive
[1] = compound: CC[C@H](CO)Nc1nc(NCc2ccccc2)c2ncn(C(C)C)c2n1 [Seliciclib] + CC1(C)CCC(c2ccc(Cl)cc2)=C(CN2CCN(c3ccc(C(=O)NS(=O)(=O)c4ccc(N[C@H](CCN5CCOCC5)CSc5ccccc5)c(S(=O)(=O)C(F)(F)F)c4)cc3)CC2)C1 [Navitoclax] (partner 0.5 µM)
Summary of the method: (§1)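 Relative viability equals treated-well nuclei counts divided by vehicle-well nuclei counts. Counts came from 4× images of lung cancer cell lines grown in 1536-well plates for 5 days after pin-tool dosing on the day after seeding. Dosing used one drug alone or a fixed anchor-drug dose plus five library-drug doses (not always all listed) in √10 steps, and values are medians of duplicate plates.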

[2] = compound: CC[C@H](CO)Nc1nc(NCc2ccccc2)c2ncn(C(C)C)c2n1 [Seliciclib] + C[C@@H](Oc1cc(-c2cnn(C3CCNCC3)c2)cnc1N)c1c(Cl)ccc(F)c1Cl [Crizotinib] (partner 1 µM)
Summary of the method: as §1

[3] = compound: CC[C@H](CO)Nc1nc(NCc2ccccc2)c2ncn(C(C)C)c2n1 [Seliciclib] + Cc1cc(Nc2cc(N3CCN(C)CC3)nc(Sc3ccc(NC(=O)C4CC4)cc3)n2)n[nH]1 [Tozasertib] (partner 0.1 µM)
Summary of the method: as §1

[4] = compound: CC[C@H](CO)Nc1nc(NCc2ccccc2)c2ncn(C(C)C)c2n1 [Seliciclib] + O=C(CCCCCCC(=O)Nc1ccccc1)NO [Vorinostat] (partner 1 µM)
Summary of the method: as §1

Cell Line	relative viability ([1]; first compound 0.08 µM)	relative viability ([1]; first compound 0.253 µM)	relative viability ([1]; first compound 0.8 µM)	relative viability ([1]; first compound 2.53 µM)	relative viability ([1]; first compound 8 µM)	relative viability ([2]; first compound 0.08 µM)	relative viability ([2]; first compound 0.253 µM)	relative viability ([2]; first compound 0.8 µM)	relative viability ([2]; first compound 2.53 µM)	relative viability ([2]; first compound 8 µM)	relative viability ([3]; first compound 0.08 µM)	relative viability ([3]; first compound 0.253 µM)	relative viability ([3]; first compound 0.8 µM)	relative viability ([3]; first compound 2.53 µM)	relative viability ([3]; first compound 8 µM)	relative viability ([4]; first compound 0.08 µM)	relative viability ([4]; first compound 0.253 µM)	relative viability ([4]; first compound 0.8 µM)	relative viability ([4]; first compound 2.53 µM)	relative viability ([4]; first compound 8 µM)
COR-L23	0.906	1.1	0.867	1.06	0.733	0.61	0.806	0.693	0.671	0.519	0.224	0.234	0.187	0.164	0.154	0.402	0.43	0.403	0.458	0.359
NCI-H1993	0.937	0.635	0.927	0.962	0.849	0.769	0.803	0.768	0.849	0.727	0.546	0.578	0.596	0.541	0.508	0.836	0.931	0.883	0.559	0.498
NCI-H1437	1.01	1.11	1.07	1.15	0.885	0.861	0.916	0.951	0.97	0.834	0.425	0.431	0.405	0.4	0.352	0.811	0.901	0.69	0.633	0.374
UMC-11	0.316	0.279	0.313	0.29	0.25	0.654	0.558	0.672	0.712	0.404	0.202	0.202	0.214	0.194	0.202	0.432	0.336	0.353	0.281	0.194
201T	1.18	1.17	1.2	1.2	1.13	1.04	0.996	1.04	1.02	0.95	0.948	0.959	0.893	0.964	0.745	0.967	1.07	0.904	0.637	0.906
NCI-H1944	0.987	1.01	0.946	1.11	0.871	1.09	1.16	0.931	0.996	0.714	0.263	0.242	0.235	0.225	0.234	0.562	0.527	0.466	0.552	0.338
ChaGo-K-1	1.03	0.567	0.949	0.755	0.431	1.14	1.01	1.12	1.12	0.488	0.241	0.225	0.213	0.222	0.238	0.758	0.628	0.743	0.654	0.433
NCI-H1650	1.12	1.01	1.07	1.21	1.08	0.885	1.12	0.924	0.847	0.607	0.387	0.437	0.364	0.422	0.318	0.474	0.511	0.558	0.526	0.326
LOU-NH91	0.591	0.61	0.591	0.695	0.482	0.721	0.743	0.678	0.673	0.685	0.638	0.686	0.583	0.62	0.515	–	0.863	0.803	0.778	0.613
HOP-62	1.01	1.1	0.909	1.12	0.926	1.02	0.981	0.976	0.781	0.898	0.388	0.354	0.38	0.377	0.244	0.65	0.623	0.732	0.479	0.437
NCI-H1915	0.776	0.779	0.759	0.8	0.618	0.922	0.964	0.88	0.816	0.757	0.486	0.437	0.43	0.444	0.315	0.499	0.532	0.611	0.492	0.421
NCI-H3122	1.02	1.07	1.01	1.03	0.903	0.294	0.258	0.311	0.231	0.301	0.428	0.347	0.393	0.378	0.329	0.925	0.979	0.759	1.09	0.86
NCI-H1651	0.947	0.965	0.863	1.14	0.887	0.873	0.861	0.831	0.814	0.82	0.664	0.623	0.652	0.778	0.542	0.515	0.551	0.542	0.477	0.457
NCI-H838	1.11	1.03	1.2	1.26	0.917	0.806	0.766	0.841	0.936	0.673	0.252	0.257	0.304	0.25	0.253	0.649	0.683	0.666	0.595	0.342
NCI-H596	1	0.567	0.891	1.16	0.826	0.959	0.759	0.981	1.05	0.988	0.862	–	0.849	1.03	0.865	0.635	–	0.56	0.506	0.47
SK-LU-1	0.866	0.973	0.575	0.978	0.627	0.874	0.987	1.03	0.892	0.688	0.33	0.383	0.354	0.314	0.326	0.701	0.879	0.877	0.753	0.477
